≈ marks a conversion by molar mass, not a printed value.
Legend:
[1] = system: Mycobacterium tuberculosis; assay: Antitubercular activity against Mycobacterium tuberculosis ATCC 27294 by Alamar blue assay; assay type: functional
[2] = Cytotoxicity against mouse macrophage assessed as cell viability at 50 uM after 18 hrs by MTT assay; assay type: cell-based; conditions: mouse macrophages, read-out: Activity
[3] = Cytotoxicity against mouse macrophage assessed as cell viability at 25 uM after 18 hrs by MTT assay; assay type: cell-based; conditions: mouse macrophages, read-out: Activity
[4] = Cytotoxicity against mouse macrophage assessed as cell viability at 12.5 uM after 18 hrs by MTT assay; assay type: cell-based; conditions: mouse macrophages, read-out: Activity
[5] = system: Mycobacterium tuberculosis; assay: Antitubercular activity against Mycobacterium tuberculosis; assay type: functional
[6] = system: Mycobacterium avium; assay: Antitubercular activity against Mycobacterium avium by Broth micro dilution method; assay type: functional

| SMILES | MIC [1] | viability at 18 h, 50 µM [2] | viability at 18 h, 25 µM [3] | viability at 18 h, 12.5 µM [4] | MIC [5] | MIC [6] |
| --- | --- | --- | --- | --- | --- | --- |
| O=[N+]([O-])c1cccc(C2O[C@@H](c3cc(C(F)(F)F)nc4c(C(F)(F)F)cccc34)[C@H]3CCCCN23)c1 (stereo partly specified) | > 250 µM | 100% | 100% | 100% |  |  |
| FC(F)(F)c1cc([C@H]2O[C@@H](c3ccccc3)N3CCCC[C@@H]23)c2cccc(C(F)(F)F)c2n1 | 26.8 µM (≈ 12.5 µg/mL) | 95% | 96% | 100% |  |  |
| O=[N+]([O-])c1ccccc1C1O[C@@H](c2cc(C(F)(F)F)nc3c(C(F)(F)F)cccc23)[C@H]2CCCCN12 (mixture of isomers) | > 250 µM | 100% | 100% | 100% |  |  |
| COc1cccc(C2O[C@@H](c3cc(C(F)(F)F)nc4c(C(F)(F)F)cccc34)[C@H]3CCCCN23)c1 (mixture of isomers) | 25.2 µM | 80% | 80% | 100% |  |  |
| COc1ccc(C2O[C@@H](c3cc(C(F)(F)F)nc4c(C(F)(F)F)cccc34)[C@H]3CCCCN23)cc1 (mixture of isomers) | 25.2 µM | 100% | 100% | 100% |  |  |
| O=[N+]([O-])c1ccc(C2O[C@@H](c3cc(C(F)(F)F)nc4c(C(F)(F)F)cccc34)[C@H]3CCCCN23)cc1 (mixture of isomers) | > 250 µM | 100% | 100% | 100% |  |  |
| FC(F)(F)c1cc([C@@H]2OC(c3ccccc3Cl)N3CCCC[C@H]23)c2cccc(C(F)(F)F)c2n1 (mixture of isomers) | > 250 µM | 100% | 100% | 100% |  |  |
| FC(F)(F)c1cc([C@@H]2OC(c3cccc(Cl)c3)N3CCCC[C@H]23)c2cccc(C(F)(F)F)c2n1 (mixture of isomers) | > 250 µM | 90% | 100% | 100% |  |  |
| FC(F)(F)c1cc([C@@H]2OC(c3ccc(Cl)cc3)N3CCCC[C@H]23)c2cccc(C(F)(F)F)c2n1 (mixture of isomers) | > 250 µM | 100% | 100% | 100% |  |  |
| FC(F)(F)c1cc([C@@H]2OC(c3cccc(Br)c3)N3CCCC[C@H]23)c2cccc(C(F)(F)F)c2n1 (mixture of isomers) | > 250 µM | 85% | 85% | 100% |  |  |
| FC(F)(F)c1cc([C@@H]2OC(c3ccc(Br)cc3)N3CCCC[C@H]23)c2cccc(C(F)(F)F)c2n1 (mixture of isomers) | > 250 µM | 100% | 100% | 100% |  |  |
| Fc1ccccc1C1O[C@@H](c2cc(C(F)(F)F)nc3c(C(F)(F)F)cccc23)[C@H]2CCCCN12 (mixture of isomers) | > 250 µM | 100% | 100% | 100% |  |  |
| Fc1ccc(C2O[C@@H](c3cc(C(F)(F)F)nc4c(C(F)(F)F)cccc34)[C@H]3CCCCN23)cc1 (mixture of isomers) | 25.8 µM | 82% | 84% | 93% |  |  |
| Oc1ccccc1C1O[C@@H](c2cc(C(F)(F)F)nc3c(C(F)(F)F)cccc23)[C@H]2CCCCN12 (mixture of isomers) | 25.9 µM | 85% | 85% | 100% |  |  |
| Oc1ccc(C2O[C@@H](c3cc(C(F)(F)F)nc4c(C(F)(F)F)cccc34)[C@H]3CCCCN23)cc1 (mixture of isomers) | 25.9 µM | 80% | 80% | 100% |  |  |
| COc1ccccc1C1O[C@@H](c2cc(C(F)(F)F)nc3c(C(F)(F)F)cccc23)[C@H]2CCCCN12 (mixture of isomers) | 12.6 µM | 100% | 100% | 100% |  |  |
| CC[C@@H](CO)NCCN[C@@H](CC)CO [ETHAMBUTOL] | 15.9 µM (≈ 3.25 µg/mL) |  |  |  |  |  |
| OC(c1cc(C(F)(F)F)nc2c(C(F)(F)F)cccc12)C1CCCCN1 (stereo unspecified) [MEFLOQUINE] | 33 µM (≈ 12.5 µg/mL) | 76% | 77% | 81% | 21.1 µM (≈ 7.98 µg/mL) | 21.1 µM (≈ 7.98 µg/mL) |

Source: ChEMBL document CHEMBL1629482, “Synthesis and antitubercular activity of new mefloquine-oxazolidine derivatives” (Eur J Med Chem, 2010)
